In patent US8802723B2, “Metabolic syndrome-improving agent and medicine, supplement, functional food and food additive containing the same” (ARKRAY, Inc., priority 2005, dated 2014):

Legend:
[1] = tested on: VLDL secretion in HepG2 cells; assay: VLDL secretion inhibition experiment in HepG2 cells (apoB100 ELISA); type: cell-based, human; conditions: for VLDL secretion ratio (%): HepG2, 30 hours, measurement group/control group, control (DMSO) = 100, average ± standard error
Protocol: FCS, a non-essential amino acid, sodium pyruvate and a glutamine solution were mixed such that the final concentrations of the FCS, the non-essential amino acid, the sodium pyruvate and the glutamine solution respectively were 10%, 1%, 1 mM and 2 mM, and added to an MEM medium (manufactured by SIGMA). They were mixed aseptically on a clean bench. In a 100 mm/Collagen-Coated Dish (trade name, manufactured by Iwaki Glass Works, Co.), the medium of HepG2 cells (human hepatic cells) that had been cultured to 80% to 90% confluence was removed with a pipette and washed with 2 mL of 1×PBS. After adding 2 mL of trypsin-EDTA and rotating the above-noted dish slowly so that trypsin-EDTA spread over the entire cells, this trypsin-EDTA was removed with a pipette. The dish was allowed to stand still for 15 minutes in a CO2 incubator (37° C., 5%), and then 4 mL of a growth medium was added to this dish, followed by mixing by pipetting. Then, 2 mL of this mixture was added to each of two dishes to which 3 mL of a growth medium was added in advance. These dishes were covered with lids and moved crisscross so as to mix the content. The cells were checked using a microscope (manufactured by Olympus Corporation) and cultured in a CO2 incubator (37° C., 5%). Three or four days later, after checking that 80% to 90% confluence was achieved using the microscope, subculture was carried out in a similar manner, followed by cell culture.
First, a VLDL standard solution was prepared. The VLDL standard solution was prepared by diluting 1.169 mg/mL of human VLDL standard (trade name, manufactured by CHEMICON International, Inc.) with a growth medium. The dilution factors were 100, 1000, 10000, 100000 and 1000000.
A sandwich ELISA that recognized human […] in the VLDL as an antigen was used. First, 100 μL of Moab×LDL Apolipoprotein B (ApoB) (manufactured under MONOSAN®) was dispensed in each well of ELISA PLATE, and the plate was sealed with a sterile seal and then allowed to stand still at 4° C. overnight. In the following, all the dispensing mentioned is for a single well. On the next day, 200 μL of Zepto Block (trade name, manufactured by ZeptoMetrix Corporation) was dispensed, and then the above-noted plate was sealed and allowed to stand still for 2 hours at room temperature for blocking. Subsequently, 100 μL of the medium and the VLDL standard solution were dispensed, and then the above-noted plate was sealed and allowed to stand still for 1 hour at room temperature. Washing with 200 μL of PBST and absorption using an aspirator were carried out five times in total. […] 100 μL of 1M phosphoric acid solution was added to the above-noted mixture solution, and the absorbance at 450 nm was measured using wallac ARVOsx (trade name, PerkinElmer Life Sciences, PerkinElmer, Inc.). […]

HepG2 cells = assay: counting of the number of living cells (CellTiter 96 Aqueous One Solution); type: cell-based, human; conditions: HepG2, 30 hours, control (DMSO) = 100
Protocol: HepG2 was cultured to 80% to 90% confluence in a 100 mm/Collagen-Coated Dish (trade name, manufactured by Iwaki Glass Works, Co.). The medium was removed from the above-noted dish with a pipette and then HepG2 was washed with 2 mL of 1×PBS. Then, 2 mL of trypsin-EDTA was added, the above-noted dish was rotated slowly so that the trypsin-EDTA spread over the entire cells, this trypsin-EDTA was removed with a pipette, and the dish was allowed to stand still for 15 minutes in a CO2 incubator (37° C., 5%). To this dish, 12 mL of a growth medium was added, followed by mixing by pipetting, and 1 mL of this mixture solution was dispensed in each well of Collagen-Coated Microplates 12Well/Flat Bottom (trade name, manufactured by Iwaki Glass Works, Co.). After the cells were checked using a microscope, the wells were cultured in a CO2 incubator (37° C., 5%) for one to two days. After checking that 80% to 90% confluence was achieved using the microscope, a medium replacement was carried out by removing the medium and adding 800 μL of a medium containing aurapten. […] Using this collected medium, the number of living cells were counted, and the Western blotting and the ELISA measurement were carried out similarly to the above. From the result of the ELISA, the ratio of the VLDL secretion amount between the measurement group and the non-treated control group (measurement group/control group) was calculated for each sample.
The measurement was made using CellTiter 96 Aqueous One Solution Cell Proliferation Assay (trade name, manufactured by Promega Corporation). […] 100 μL of this mixture solution was dispensed to each of three wells of ELISA PLATE 96 well (trade name, manufactured by Iwaki Glass Works, Co.), and the absorbance at 490 nm was measured. The measurement was made using wallac ARVOsx (trade name, PerkinElmer Life Sciences, PerkinElmer, Inc.), and the mode of measurement was Absorbance (490 nm, 1.0 S). The ratio of the number of living cells between the measurement group and the non-treated control group (measurement group/control group) was calculated for each sample.

CC(C)=CCC/C(C)=C/COc1ccc2ccc(=O)oc2c1 [Aurapten, aurapten]
effect on VLDL secretion (in words) ([1]; 10-50 μM, degree of inhibition increased as concentration rose): VLDL secretion was inhibited | VLDL secretion ratio (%) ([1]; aurapten 10 μM): 63.1 ± 5.31% | VLDL secretion ratio (%) ([1]; aurapten 20 μM): 61.6 ± 2.21% | VLDL secretion ratio (%) ([1]; aurapten 50 μM): 45.6 ± 4.04% | Number of living cells (%) (HepG2 cells; aurapten 10 μM): 100.3% | Number of living cells (%) (HepG2 cells; aurapten 20 μM): 99.9% | Number of living cells (%) (HepG2 cells; aurapten 50 μM): 98.7%
